# Reference: ChEMBL document CHEMBL1132537, “A series of 6- and 7-piperazinyl- and -piperidinylmethylbenzoxazinones with dopamine D4 antagonist activity: discovery of a potential atypical antipsychotic agent” (J Med Chem, 1999)
# Columns and labels:
# Rattus norvegicus [1] = assay: Effect on Dopamine synthesis in rat Hippocampus(HI), measured as accumulation of DOPA(L-3,4-dihydroxyphenylalanine) at a peroral dose of 30 mg/kg; type: functional; conditions: route oral
# Rattus norvegicus [2] = assay: Effect on Dopamine synthesis in rat Striatum(ST), measured as accumulation of DOPA(L-3,4-dihydroxyphenylalanine) at a peroral dose of 30 mg/kg; type: functional; conditions: route oral
# D(3) dopamine receptor = D(3) dopamine receptor (Homo sapiens, UniProt P35462); assay: biochemical
# Description: Binding affinity at Dopamine receptor D3 in CHO cells by radioligand displacement.
# D(4) dopamine receptor = molecular target: T1, D(4) dopamine receptor (Homo sapiens, UniProt P21917); assay: biochemical
# T1 sequence (P21917 whole entry): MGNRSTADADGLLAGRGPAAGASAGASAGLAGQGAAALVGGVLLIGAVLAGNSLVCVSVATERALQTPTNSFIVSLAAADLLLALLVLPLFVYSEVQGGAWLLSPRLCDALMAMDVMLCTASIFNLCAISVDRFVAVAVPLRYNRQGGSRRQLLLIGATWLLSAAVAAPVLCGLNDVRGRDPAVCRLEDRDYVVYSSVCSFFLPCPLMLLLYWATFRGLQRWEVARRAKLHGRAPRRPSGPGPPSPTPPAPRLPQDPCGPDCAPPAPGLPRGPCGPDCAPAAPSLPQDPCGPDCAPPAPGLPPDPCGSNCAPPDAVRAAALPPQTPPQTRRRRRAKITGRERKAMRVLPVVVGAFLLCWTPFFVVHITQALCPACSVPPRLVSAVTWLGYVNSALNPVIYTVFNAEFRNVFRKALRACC
# Description: Binding affinity at Dopamine receptor D4 in CHO cells by radioligand displacement.
# Rattus norvegicus [3] = assay: Effect on Dopamine synthesis in rat Hippocampus(HI), measured as accumulation of DOPA(L-3,4-dihydroxyphenylalanine) at a peroral dose of 10 mg/kg; type: functional; conditions: route oral
# Rattus norvegicus [4] = assay: Effect on Dopamine synthesis in rat Striatum(ST), measured as accumulation of DOPA(L-3,4-dihydroxyphenylalanine) at a peroral dose of 10 mg/kg; type: functional; conditions: route oral
# Rattus norvegicus [5] = assay: Effect on Dopamine synthesis in rat Hippocampus(HI), measured as accumulation of DOPA(L-3,4-dihydroxyphenylalanine) at a peroral dose of 20 mg/kg; type: functional; conditions: route oral
# Rattus norvegicus [6] = assay: Effect on Dopamine synthesis in rat Striatum(ST), measured as accumulation of DOPA(L-3,4-dihydroxyphenylalanine) at a peroral dose of 20 mg/kg; type: functional; conditions: route oral
# D(2) dopamine receptor = D(2) dopamine receptor (Homo sapiens, UniProt P14416); assay: Binding affinity at Dopamine receptor D2 in CHO cells by radioligand displacement.; type: cell-based
# [7] = molecular target: T2, 5-hydroxytryptamine receptor 1A (Homo sapiens, UniProt P08908); assay: Inhibition of [3H]- […] binding against human recombinant 5-hydroxytryptamine 1A receptor
# T2 sequence (P08908 whole entry): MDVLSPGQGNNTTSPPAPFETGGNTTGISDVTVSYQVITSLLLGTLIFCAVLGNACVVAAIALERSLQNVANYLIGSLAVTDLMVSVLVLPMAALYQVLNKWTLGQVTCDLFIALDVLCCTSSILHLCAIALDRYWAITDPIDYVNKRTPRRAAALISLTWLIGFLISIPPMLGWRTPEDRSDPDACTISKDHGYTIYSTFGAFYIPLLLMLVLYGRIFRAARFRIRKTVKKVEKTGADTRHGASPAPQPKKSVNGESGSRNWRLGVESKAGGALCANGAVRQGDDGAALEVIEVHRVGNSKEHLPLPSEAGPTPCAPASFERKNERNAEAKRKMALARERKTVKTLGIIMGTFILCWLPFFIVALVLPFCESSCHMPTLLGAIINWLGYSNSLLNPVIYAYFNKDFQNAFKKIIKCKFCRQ
# [8] = molecular target: Serotonin 2 (5-HT2) receptor (Rattus norvegicus, UniProt P30994+P08909+P14842); assay: Inhibition of [3H]- Ketanserin binding against rat brain 5-hydroxytryptamine 2 receptor
# [9] = molecular target: T3, Alpha-1A adrenergic receptor (Rattus norvegicus, UniProt P43140); assay: Inhibition of [3H]- prazosin binding against Alpha-1A adrenergic receptor from rat submaxillary gland
# T3 sequence (P43140 whole entry): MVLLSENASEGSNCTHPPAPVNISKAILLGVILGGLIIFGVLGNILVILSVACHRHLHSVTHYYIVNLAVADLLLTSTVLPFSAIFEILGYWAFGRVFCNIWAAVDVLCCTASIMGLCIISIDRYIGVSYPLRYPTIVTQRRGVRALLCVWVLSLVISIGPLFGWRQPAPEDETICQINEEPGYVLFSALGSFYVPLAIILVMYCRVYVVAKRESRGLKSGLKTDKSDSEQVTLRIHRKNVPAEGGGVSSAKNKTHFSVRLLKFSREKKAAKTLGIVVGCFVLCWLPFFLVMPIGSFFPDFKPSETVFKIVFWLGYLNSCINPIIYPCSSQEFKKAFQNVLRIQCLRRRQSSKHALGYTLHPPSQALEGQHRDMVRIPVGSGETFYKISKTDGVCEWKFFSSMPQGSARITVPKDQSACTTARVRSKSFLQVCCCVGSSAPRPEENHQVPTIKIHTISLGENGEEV
# [10] = molecular target: T4, Alpha-1B adrenergic receptor (Rattus norvegicus, UniProt P15823); assay: Inhibition of [3H]- prazosin binding against Alpha-1B adrenergic receptor from rat liver
# T4 sequence (P15823 whole entry): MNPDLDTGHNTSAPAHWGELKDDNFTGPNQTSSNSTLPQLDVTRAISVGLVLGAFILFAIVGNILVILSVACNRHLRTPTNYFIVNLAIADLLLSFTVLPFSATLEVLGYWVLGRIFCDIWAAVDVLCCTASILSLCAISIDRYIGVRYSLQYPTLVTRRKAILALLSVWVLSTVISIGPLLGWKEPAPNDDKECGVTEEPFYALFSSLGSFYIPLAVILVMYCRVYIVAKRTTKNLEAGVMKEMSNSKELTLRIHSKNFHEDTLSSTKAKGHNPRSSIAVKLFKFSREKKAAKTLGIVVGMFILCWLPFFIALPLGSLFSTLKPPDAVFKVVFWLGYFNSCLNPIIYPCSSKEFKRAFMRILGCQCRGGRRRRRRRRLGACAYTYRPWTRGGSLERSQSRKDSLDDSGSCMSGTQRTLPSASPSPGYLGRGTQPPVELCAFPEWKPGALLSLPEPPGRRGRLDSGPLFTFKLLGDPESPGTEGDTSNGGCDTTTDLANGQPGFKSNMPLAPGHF
# [11] = molecular target: T5, Alpha-2A adrenergic receptor (Homo sapiens, UniProt P08913); assay: Inhibition of [3H]- MK-912 binding against human recombinant Alpha-2A adrenergic receptor
# T5 sequence (P08913 whole entry): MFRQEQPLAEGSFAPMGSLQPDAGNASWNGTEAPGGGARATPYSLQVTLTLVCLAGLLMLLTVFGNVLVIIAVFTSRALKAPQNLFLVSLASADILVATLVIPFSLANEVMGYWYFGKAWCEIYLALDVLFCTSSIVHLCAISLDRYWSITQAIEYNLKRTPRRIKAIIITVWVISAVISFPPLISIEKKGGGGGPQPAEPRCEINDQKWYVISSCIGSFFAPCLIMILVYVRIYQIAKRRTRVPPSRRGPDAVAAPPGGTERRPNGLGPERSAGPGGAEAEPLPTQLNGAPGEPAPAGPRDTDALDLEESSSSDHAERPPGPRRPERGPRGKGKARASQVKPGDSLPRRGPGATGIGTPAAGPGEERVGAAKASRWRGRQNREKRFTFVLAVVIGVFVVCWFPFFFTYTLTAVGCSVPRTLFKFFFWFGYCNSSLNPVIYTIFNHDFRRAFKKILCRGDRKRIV
# [12] = molecular target: T6, Muscarinic acetylcholine receptor M5 (Homo sapiens, UniProt P08912); assay: Inhibition of [3H]- NMS binding against human recombinant Muscarinic acetylcholine receptor M5
# T6 sequence (P08912 whole entry): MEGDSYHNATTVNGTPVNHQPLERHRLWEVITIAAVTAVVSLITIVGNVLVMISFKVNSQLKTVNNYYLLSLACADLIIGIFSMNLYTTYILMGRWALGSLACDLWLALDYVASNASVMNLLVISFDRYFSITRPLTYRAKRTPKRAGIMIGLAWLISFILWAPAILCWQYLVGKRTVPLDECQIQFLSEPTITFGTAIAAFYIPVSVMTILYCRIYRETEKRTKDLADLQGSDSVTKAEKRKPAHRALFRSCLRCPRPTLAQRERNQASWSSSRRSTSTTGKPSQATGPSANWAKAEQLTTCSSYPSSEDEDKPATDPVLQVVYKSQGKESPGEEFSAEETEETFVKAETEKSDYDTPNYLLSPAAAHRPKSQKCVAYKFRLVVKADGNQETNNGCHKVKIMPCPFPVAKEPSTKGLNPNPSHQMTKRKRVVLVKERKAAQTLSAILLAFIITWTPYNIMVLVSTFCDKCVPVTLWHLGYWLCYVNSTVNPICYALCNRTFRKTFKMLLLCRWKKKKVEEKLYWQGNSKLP
# [13] = molecular target: Sigma intracellular receptor 2 (Rattus norvegicus, UniProt Q5U3Y7); assay: Inhibition of [3H]- Ifenprodil binding against rat brain Sigma opioid receptor type 2
# [14] = molecular target: T7, Alpha-2B adrenergic receptor (Rattus norvegicus, UniProt P19328); assay: Inhibition of [3H]- Yohimbine binding against rat kidney cortex Alpha-2B adrenergic receptor
# T7 sequence (P19328 whole entry): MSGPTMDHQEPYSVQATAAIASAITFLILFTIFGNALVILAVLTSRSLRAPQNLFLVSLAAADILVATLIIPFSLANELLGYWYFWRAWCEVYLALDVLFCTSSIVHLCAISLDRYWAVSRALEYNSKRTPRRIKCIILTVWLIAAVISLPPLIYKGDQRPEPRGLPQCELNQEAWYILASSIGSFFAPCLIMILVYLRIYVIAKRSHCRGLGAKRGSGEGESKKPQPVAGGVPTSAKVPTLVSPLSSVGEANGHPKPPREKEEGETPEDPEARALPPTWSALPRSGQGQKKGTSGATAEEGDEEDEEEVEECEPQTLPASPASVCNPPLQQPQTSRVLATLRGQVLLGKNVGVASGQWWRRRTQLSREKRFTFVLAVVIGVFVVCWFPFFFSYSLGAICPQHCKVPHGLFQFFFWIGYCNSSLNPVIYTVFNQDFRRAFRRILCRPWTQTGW
# Sequence of D(3) dopamine receptor (P35462 whole entry): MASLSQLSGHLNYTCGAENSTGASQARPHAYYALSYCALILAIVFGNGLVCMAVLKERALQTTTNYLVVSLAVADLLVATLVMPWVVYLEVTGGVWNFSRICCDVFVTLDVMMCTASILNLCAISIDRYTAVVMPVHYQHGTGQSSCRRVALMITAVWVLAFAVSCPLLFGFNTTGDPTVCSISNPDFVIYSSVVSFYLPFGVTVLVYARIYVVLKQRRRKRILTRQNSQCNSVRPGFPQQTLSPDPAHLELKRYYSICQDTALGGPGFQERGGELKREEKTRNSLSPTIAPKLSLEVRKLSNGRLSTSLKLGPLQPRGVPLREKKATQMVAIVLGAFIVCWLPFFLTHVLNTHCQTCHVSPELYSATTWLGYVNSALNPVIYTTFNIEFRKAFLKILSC
# Sequence of D(2) dopamine receptor (P14416 whole entry): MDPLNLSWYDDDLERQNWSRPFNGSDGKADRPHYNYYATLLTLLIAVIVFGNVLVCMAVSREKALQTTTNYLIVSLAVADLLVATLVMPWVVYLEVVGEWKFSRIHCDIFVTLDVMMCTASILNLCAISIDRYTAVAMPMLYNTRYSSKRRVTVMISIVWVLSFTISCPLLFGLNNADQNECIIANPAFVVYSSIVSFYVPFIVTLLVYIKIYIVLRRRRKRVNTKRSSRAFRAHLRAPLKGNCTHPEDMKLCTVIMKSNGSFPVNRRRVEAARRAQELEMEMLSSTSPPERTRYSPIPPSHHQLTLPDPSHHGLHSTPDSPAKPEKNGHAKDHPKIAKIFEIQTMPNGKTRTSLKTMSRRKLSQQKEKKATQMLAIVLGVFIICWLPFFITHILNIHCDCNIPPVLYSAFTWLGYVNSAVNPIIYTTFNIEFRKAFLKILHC
# Sequence of Sigma intracellular receptor 2 (Q5U3Y7 whole entry, looked up): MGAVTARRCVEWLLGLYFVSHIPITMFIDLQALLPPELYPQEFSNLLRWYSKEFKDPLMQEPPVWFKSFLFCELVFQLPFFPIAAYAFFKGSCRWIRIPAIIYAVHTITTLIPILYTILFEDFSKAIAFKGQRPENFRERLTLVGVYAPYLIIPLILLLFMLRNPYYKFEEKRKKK
SMILES,Ki (D(3) dopamine receptor),Ki (D(4) dopamine receptor),Change (Rattus norvegicus [3]),Change (Rattus norvegicus [4]),also measured
COc1ccc(C2CCN(Cc3ccc4c(c3)NC(=O)CO4)CC2)cc1,> 3030 nM,–,–,–,Change (Rattus norvegicus [1]): 93%; Change (Rattus norvegicus [2]): 96%
O=C1COc2ccc(CN3CCN(c4ccc(Cl)cc4)CC3)cc2N1,> 3030 nM,62.4 nM,–,–,–
Cc1ccc(C2CCN(Cc3ccc4c(c3)OCC(=O)N4)CC2)cc1C,859 nM,2.6 nM,103%,99%,–
O=C1COc2ccc(CN3CCN(c4ccccc4)CC3)cc2N1,839 nM,18.3 nM,–,–,–
O=C1COc2cc(CN3CCN(c4ccccc4)CC3)ccc2N1,10.4 nM,6.1 nM,–,–,–
COc1ccc(C2CCN(Cc3ccc4c(c3)OCC(=O)N4)CC2)cc1,428 nM,6.7 nM,–,–,Change (Rattus norvegicus [5]): 132%; Change (Rattus norvegicus [6]): 126%
Cc1ccc(C2CCN(Cc3ccc4c(c3)NC(=O)CO4)CC2)cc1C,> 3030 nM,1.8 nM,–,–,Change in DA synthesis (Rattus norvegicus [3]): 128%; Change in DA synthesis (Rattus norvegicus [4]): 104%
COc1ccc(N2CCN(Cc3ccc4c(c3)OCC(=O)N4)CC2)cc1,1790 nM,5 nM,122%,104%,Ki (D(2) dopamine receptor): > 5880 nM
Cc1ccc(N2CCN(Cc3ccc4c(c3)OCC(=O)N4)CC2)cc1,208 nM,–,133%,140%,–
Cc1ccc(N2CCN(Cc3ccc4c(c3)NC(=O)CO4)CC2)cc1C,864 nM,–,122%,126%,–
Cc1ccc(C2CCN(Cc3ccc4c(c3)OCC(=O)N4)CC2)cc1,232 nM,2.6 nM,–,–,–
Cc1ccc(N2CCN(Cc3ccc4c(c3)OCC(=O)N4)CC2)cc1C,78.5 nM,–,–,–,–
Cc1ccc(N2CCN(Cc3ccc4c(c3)NC(=O)CO4)CC2)cc1,2490 nM,4.3 nM,–,–,Change (Rattus norvegicus [5]): 89%; Change (Rattus norvegicus [6]): 111%
O=C1COc2cc(CN3CCN(c4ccc(Cl)cc4)CC3)ccc2N1,679 nM,4.3 nM,146%,110%,IC50 [7]: 1400 nM; Ki [7]: 792 nM; IC50 [8]: 2700 nM; Ki [8]: 1678 nM; IC50 [9]: 500 nM; Ki [9]: 203 nM; IC50 [10]: 1420 nM; Ki [10]: 787 nM; IC50 [11]: 1100 nM; Ki [11]: 411 nM; Ki (D(2) dopamine receptor): 413 nM; IC50 [12]: 1340 nM; Ki [12]: 964 nM; IC50 [13]: 375 nM; Ki [13]: 231 nM; IC50 [14]: 630 nM; Ki [14]: 368 nM
Cc1ccc(C2CCN(Cc3ccc4c(c3)NC(=O)CO4)CC2)cc1,> 3030 nM,2.8 nM,–,–,–
COc1ccc(N2CCN(Cc3ccc4c(c3)NC(=O)CO4)CC2)cc1,> 3030 nM,–,–,–,Change (Rattus norvegicus [1]): 91%; Change (Rattus norvegicus [2]): 110%
